# Reference: patent US20080318957A1, “POLYBASIC BACTERIAL EFFLUX PUMP INHIBITORS AND THERAPEUTIC USES THEREOF” (priority 2007, published 2008)
# Tested on: strain of P. aeruginosa, PAM1723, overexpressing the MexAB-OprM efflux pump
# Assay: checkerboard assay, levofloxacin potentiating activity (broth microdilution)
# Format: cell-based
# Settings: lowest inhibitor concentration giving antibacterial activity with levofloxacin at 1/32 of its MIC; MHB, 20 h, 35° C.
# Description: All EPI compounds were readily soluble in water and stock solutions were prepared at a final concentration of 10 mg/ml. Stock solutions were further diluted, according to the needs of the particular assay, in Mueller Hinton Broth (MHB). Stock solution was stored at −80° C.
# The checkerboard assay was performed in microtiter plates. […] EPIs were diluted in the y-axis, each row containing a single concentration of an EPI. The result of these manipulations was that each well of the microtiter plate contained a unique combination of concentrations of the two agents. The assay was performed in MHB with a final bacterial inoculum of 5 times 10^5 CFU/ml (from an early-log phase culture). Microtiter plates were incubated during 20 h at 35° C. and were read using a microtiterplate reader (Molecular Devices) at 650 nm as well as visual observation using a microtiter plate-reading mirror.
row,SMILES,MPC32 (Minimum Potentiating Concentration) [µg/mL]
1,"NCCN(CCN)C(=O)CC[C@H](N)C(=O)N[C@H](Cc1ccc(C(F)(F)F)cc1)C(=O)Nc1cnc2ccccc2c1 [Compound 1, 3-[(1S)-3-[bis(2-azaniumylethyl)carbamoyl]-1-{[(1R)-1-carbamoyl-2-[4-(trifluoromethyl)phenyl]ethyl]carbamoyl}propan-1-aminium]quinolin-1-ium tetrachloride]",0.6
2,NCCN(CCN)C(=O)C[C@H](N)C(=O)N[C@@H](CCc1ccccc1)C(=O)Nc1cnc2ccccc2c1 [Compound 2],5
3,"NCCN(CCN)C(=O)CC[C@H](N)C(=O)N/C(=C/c1ccc(C(F)(F)F)cc1)C(=O)Nc1cnc2ccccc2c1 [Compound 4, 3-[(1S)-3-[bis(2-azaniumylethyl)carbamoyl]-1-{[(1E)-1-carbamoyl-2-[4-(trifluoromethyl)phenyl]eth-1-en-1-yl]carbamoyl}propan-1-aminium]quinolin-1-ium tetrachloride]",2.5
4,"CN(C(=O)[C@@H](N)CCC(=O)N(CCN)CCN)[C@@H](Cc1ccc(C(F)(F)F)cc1)C(=O)Nc1cnc2ccccc2c1 [Compound 5, 3-[(1S)-3-[bis(2-azaniumylethyl)carbamoyl]-1-{[(1S)-1-carbamoyl-2-[4-(trifluoromethyl)phenyl]ethyl](methyl)carbamoyl}propan-1-aminium]quinolin-1-ium tetrachloride]",>10
5,"NCCN(CCN)C(=O)CC[C@H](N)C(=O)N[C@H](C(=O)Nc1cnc2ccccc2c1)[C@H](O)c1ccc(C(F)(F)F)cc1 [Compound 3, 3-[(1S)-3-[bis(2-azaniumylethyl)carbamoyl]-1-{[(1S,2R)-1-carbamoyl-2-hydroxy-2-[4-(trifluoromethyl)phenyl]ethyl]carbamoyl]propan-1-aminium]quinolin-1-ium tetrachloride]",>10
